Consider seven molecules from ChEMBL document CHEMBL1124919, “Synthesis and biochemical studies of 7-substituted 4,6-androstadiene-3,17-diones as aromatase inhibitors” (J Med Chem, 1990).

pKi: −log10 of the molar value.

Tested on in the first series: not listed separately
Put plainly: Apparent Km value was determined. The format is ADME.
For the molecule `C[C@]12CCC(=O)C=C1CC[C@@H]1[C@@H]2CC[C@]2(C)C(=O)CC[C@@H]12` [ANDROSTENEDIONE], the Km stood at 0.051 µM.

The target of the next series is T1, Aromatase (Homo sapiens, UniProt P11511).
T1 sequence (P11511 whole entry): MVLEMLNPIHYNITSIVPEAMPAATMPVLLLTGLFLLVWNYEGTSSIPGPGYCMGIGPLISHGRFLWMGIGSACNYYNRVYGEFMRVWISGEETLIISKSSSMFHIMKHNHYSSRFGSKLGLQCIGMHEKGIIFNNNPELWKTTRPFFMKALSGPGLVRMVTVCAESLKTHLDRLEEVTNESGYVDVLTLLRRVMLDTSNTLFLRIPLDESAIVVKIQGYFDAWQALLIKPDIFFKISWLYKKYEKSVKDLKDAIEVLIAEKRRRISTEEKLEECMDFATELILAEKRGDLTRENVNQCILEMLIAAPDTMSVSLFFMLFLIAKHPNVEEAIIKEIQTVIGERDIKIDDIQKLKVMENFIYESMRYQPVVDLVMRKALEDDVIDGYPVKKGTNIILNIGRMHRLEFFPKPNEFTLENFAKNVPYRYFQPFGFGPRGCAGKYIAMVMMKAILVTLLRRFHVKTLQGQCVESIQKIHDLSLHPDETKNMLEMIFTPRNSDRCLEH
Description: In vitro inhibition of human placental cytochrome P450 19A1.
For the molecule `CC12CCC3C(C(CCc4ccccc4)=CC4=CC(=O)CCC43C)C1CCC2=O` (configuration not stated), the pKi is 6.76. Still for that read-out and setting: for `CC12CCC3C(C(Cc4ccc([N+](=O)[O-])cc4)=CC4=CC(=O)CCC43C)C1CCC2=O` (configuration not stated) the value was 7.03; for `CC12CCC3C(C(c4ccccc4)=CC4=CC(=O)CCC43C)C1CCC2=O` (configuration not stated), 5.85.

For `CC12CCC3C(C(Cc4ccc(N)cc4)=CC4=CC(=O)CCC43C)C1CCC2=O` (configuration not stated), the pKi was 7.06.

As for `CC12CCC3C(C(CCc4ccc(N)cc4)=CC4=CC(=O)CCC43C)C1CCC2=O` (configuration not stated), the pKi was 7.06. The same measure, in the same setting: for `CC12CCC3C(C(CCc4ccc([N+](=O)[O-])cc4)=CC4=CC(=O)CCC43C)C1CCC2=O` (configuration not stated) the value was 7.02.

A word on the Km: it is the substrate concentration at which the rate is half of its maximum. In general, pKi refers to the Ki on a negative log10 scale, so that one unit is a factor of ten. A lower pKi goes with a high Ki.
